The results in this text go back to PubChem BioAssay (NCI).

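Method: 48-hour compound exposure of cells in 96-well plates, five concentrations, linear interpolation of endpoints. TGI: total growth inhibition.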

Some test systems named below: UO-31 renal; SK-OV-3 ovarian; NCI-H23 lung; HOP-62 NSCLC; NCI-H460 lung; LOX IMVI melanoma; COLO 205 colon; CAKI-1 renal; EKVX NSCLC; HOP-92 NSCLC; SF-268 CNS; SR leukemia; TK-10 renal; SF-539 CNS; HCC-2998 colon; HS 578T breast; MDA-MB-435; BT-549 breast; NCI/ADR-RES ovarian.
Holding throughout (assay): DTP human tumour cell line panel, 48 h

With `O=C(COC(=O)c1cccc2c(=O)c3ccccc3[nH]c12)Nc1ccc(Cl)cc1`, the TGI in the assay with UO-31 renal is above 100 µM; with SK-OV-3 ovarian it was above 100 µM; in the assay on NCI-H23 lung, 64.2 µM; with HOP-62 NSCLC, 78.5 µM; with NCI-H460 lung, above 100 µM; with LOX IMVI melanoma, above 100 µM. Also, the TGI in the assay with COLO 205 colon, in the assay with CAKI-1 renal, in the assay on EKVX NSCLC, with HOP-92 NSCLC, with SF-268 CNS and in the assay on SR leukemia was above 100 µM each time. The total growth inhibition concentration (TGI) in the assay with TK-10 renal is 46.5 µM; in the assay with SF-539 CNS, above 100 µM; in the assay with HCC-2998 colon it was above 100 µM.

For `COc1ccc(C[C@@H](C(=O)O[C@H](C)[C@H](NC(=O)[C@@H](CC(C)C)N(C)C(=O)C2CCCN2C(=O)[C@H](C)O)C(=O)N2CCCCNC(=O)[C@@H](C)C(=O)[C@H](C(C)C)OC(=O)C[C@H](O)[C@H]2CC(C)C)N(C)C(C)=O)cc1` (stereo not given in full), the total growth inhibition concentration (TGI) in the assay on UO-31 renal was above 50 µM; in the assay on HS 578T breast it was 34.8 µM; in the assay with SK-OV-3 ovarian, above 50 µM; in the assay on NCI-H23 lung it was 42.5 µM; in the assay on HOP-62 NSCLC it was above 50 µM; with MDA-MB-435, above 50 µM. Further, the concentration for total growth inhibition (TGI) was 45.2 µM in the assay on NCI-H460 lung; 14.8 µM in the assay with COLO 205 colon; 41.6 µM in the assay on CAKI-1 renal; above 50 µM in the assay with BT-549 breast; 37.1 µM in the assay with EKVX NSCLC; above 50 µM in the assay with HOP-92 NSCLC. In addition, the TGI was above 50 µM in the assay with SF-268 CNS; above 50 µM in the assay on NCI/ADR-RES ovarian; 25 µM in the assay with SR leukemia; above 50 µM in the assay on TK-10 renal; 17.1 µM in the assay with SF-539 CNS; 23 µM with HCC-2998 colon.

Regarding `COc1ccc(NC(=O)c2oc3cc(O)ccc3c(=O)c2C)c([N+](=O)[O-])c1`, the TGI in the assay with UO-31 renal, in the assay with SK-OV-3 ovarian, in the assay on NCI-H23 lung, in the assay with HOP-62 NSCLC, with NCI-H460 lung and with LOX IMVI melanoma was above 100 µM throughout. In addition, the concentration for total growth inhibition (TGI) in the assay on COLO 205 colon, in the assay on CAKI-1 renal, in the assay with EKVX NSCLC, in the assay on HOP-92 NSCLC, in the assay with SF-268 CNS and with SR leukemia was above 100 µM in each case. Moreover, the TGI with TK-10 renal, in the assay with SF-539 CNS and in the assay with HCC-2998 colon was above 100 µM in each case.

For `COC(=O)C(=O)C(C(C)=O)C(=O)NCc1ccccc1` (stereo not given), the TGI in the assay on UO-31 renal, in the assay with NCI-H23 lung, in the assay on HOP-62 NSCLC, in the assay with NCI-H460 lung, in the assay with LOX IMVI melanoma and in the assay with COLO 205 colon was above 100 µM each time. The TGI in the assay on CAKI-1 renal, in the assay on EKVX NSCLC, in the assay with HOP-92 NSCLC, with SF-268 CNS, in the assay with SR leukemia and with TK-10 renal was above 100 µM throughout. For the same compound, the total growth inhibition concentration (TGI) in the assay with SF-539 CNS and with HCC-2998 colon was above 100 µM throughout.

As to `O=C(Nc1ccc([N+](=O)[O-])cc1[N+](=O)[O-])C(=O)C(C(=O)c1ccc(Cl)c(Cl)c1)C1OC(=O)c2ccccc21` (stereo not given), the concentration for total growth inhibition (TGI) amounted to 80.9 µM with UO-31 renal; 82.5 µM with SK-OV-3 ovarian; 39.8 µM in the assay on NCI-H23 lung; 36.9 µM with HOP-62 NSCLC; 41.4 µM in the assay on LOX IMVI melanoma; 48.4 µM in the assay on COLO 205 colon. For the same compound, the total growth inhibition concentration (TGI) with CAKI-1 renal is above 100 µM; with EKVX NSCLC, above 100 µM; in the assay on HOP-92 NSCLC, 9.46 µM; in the assay on SF-268 CNS, 76.3 µM; in the assay on SR leukemia it was above 100 µM; in the assay with TK-10 renal, 93.7 µM.

As for `NCCCC(N=Cc1nc(-c2ccccc2)oc1O)C(=O)O` (stereo not given), the TGI with UO-31 renal, in the assay with SK-OV-3 ovarian, with NCI-H23 lung, in the assay with HOP-62 NSCLC, in the assay on NCI-H460 lung and in the assay on LOX IMVI melanoma was above 100 µM throughout. Besides, the total growth inhibition concentration (TGI) in the assay with COLO 205 colon, in the assay on EKVX NSCLC, with HOP-92 NSCLC, in the assay on SF-268 CNS, in the assay on SR leukemia and with TK-10 renal was above 100 µM in each case. Moreover, the TGI in the assay with SF-539 CNS and with HCC-2998 colon was above 100 µM in each case.

Consider `CC1(C2COC(=O)C2)SCCCS1` (stereo not given), for which the concentration for total growth inhibition (TGI) is 28.1 µM with UO-31 renal; above 100 µM with SK-OV-3 ovarian; above 100 µM in the assay with NCI-H23 lung; above 100 µM in the assay with HOP-62 NSCLC; above 100 µM in the assay on NCI-H460 lung; above 100 µM in the assay on LOX IMVI melanoma. In addition, the TGI in the assay on COLO 205 colon, with CAKI-1 renal, in the assay on EKVX NSCLC, in the assay with HOP-92 NSCLC, in the assay with SF-268 CNS and in the assay with SR leukemia was above 100 µM in each case. The total growth inhibition concentration (TGI) in the assay on TK-10 renal, in the assay with SF-539 CNS and with HCC-2998 colon was above 100 µM each time.

For `CCOC(=O)C1=C(O)C(=O)c2ccoc2C1=O`, the TGI in the assay on UO-31 renal, in the assay on SK-OV-3 ovarian, with NCI-H23 lung, in the assay on HOP-62 NSCLC, in the assay on NCI-H460 lung and in the assay on LOX IMVI melanoma was above 100 µM throughout. For the same compound, the concentration for total growth inhibition (TGI) in the assay with COLO 205 colon, in the assay with CAKI-1 renal, in the assay on EKVX NSCLC, with HOP-92 NSCLC, in the assay with SF-268 CNS and with SR leukemia was above 100 µM in each case. The concentration for total growth inhibition (TGI) with TK-10 renal, in the assay with SF-539 CNS and in the assay on HCC-2998 colon was above 100 µM throughout.

Take `CC(Cc1ccccc1)N(C)Cc1nc(C2CCC([N+](=O)[O-])O2)no1` (stereo not given): the TGI was 20.4 µM in the assay with UO-31 renal; 17.9 µM with HS 578T breast; 84 µM with SK-OV-3 ovarian; 19.4 µM in the assay on NCI-H23 lung; 19.7 µM with HOP-62 NSCLC; 20.4 µM in the assay with MDA-MB-435. Also, the TGI is 11.6 µM with LOX IMVI melanoma; 12.9 µM with COLO 205 colon; 94.4 µM in the assay with EKVX NSCLC; 51.2 µM in the assay on HOP-92 NSCLC; above 100 µM with SF-268 CNS; 82.5 µM in the assay with NCI/ADR-RES ovarian. Moreover, the TGI in the assay on SR leukemia is above 100 µM; with TK-10 renal, 28.4 µM; with SF-539 CNS, 8.38 µM; in the assay with HCC-2998 colon it was 14.3 µM.

As for `COc1ccc(C2Oc3c(cccc3-c3c(-c4ccc(O)cc4)oc4cc(O)cc(O)c4c3=O)C(=O)C2O)cc1O` (stereo not given), the TGI with UO-31 renal, with SK-OV-3 ovarian, in the assay on NCI-H23 lung, in the assay on HOP-62 NSCLC, in the assay on MDA-MB-435 and in the assay on NCI-H460 lung was above 100 µM each time. Besides, the TGI in the assay on COLO 205 colon, in the assay on BT-549 breast, with EKVX NSCLC, with HOP-92 NSCLC, with SF-268 CNS and in the assay on NCI/ADR-RES ovarian was above 100 µM each time. In addition, the total growth inhibition concentration (TGI) with SR leukemia, in the assay on TK-10 renal and in the assay on HCC-2998 colon was above 100 µM throughout.

Regarding `COc1ccc(/C=N/N=C(\N)NO)cc1F`, the TGI with UO-31 renal is 39.6 µM; with SK-OV-3 ovarian it was above 100 µM; in the assay on NCI-H23 lung, 81 µM; in the assay on HOP-62 NSCLC, 72.5 µM; with NCI-H460 lung, above 100 µM; in the assay with LOX IMVI melanoma, 48.7 µM. Also, the TGI with COLO 205 colon is above 100 µM; in the assay on CAKI-1 renal, 46.5 µM; in the assay on EKVX NSCLC it was above 100 µM; in the assay with HOP-92 NSCLC, 76.2 µM; in the assay on SF-268 CNS, 66.7 µM; in the assay on SR leukemia, 86.5 µM. Also, the TGI in the assay with TK-10 renal was above 100 µM; in the assay with SF-539 CNS, 60.1 µM; with HCC-2998 colon it was above 100 µM.

`Clc1ccc(C(Cc2ccccc2)c2c(Cl)nc(N3CCNCC3)nc2Cl)cc1` (stereo not given): the total growth inhibition concentration (TGI) with UO-31 renal came to 27.2 µM; with HS 578T breast, 32.6 µM; in the assay with SK-OV-3 ovarian, 33.2 µM; in the assay on NCI-H23 lung, 36.8 µM; in the assay with HOP-62 NSCLC, 30.2 µM; in the assay with MDA-MB-435 it was 32 µM. In addition, the concentration for total growth inhibition (TGI) came out at 30.2 µM in the assay with NCI-H460 lung; 10.6 µM with LOX IMVI melanoma; 3.11 µM in the assay on COLO 205 colon; 18 µM with CAKI-1 renal; 47.4 µM with BT-549 breast; 32.2 µM in the assay on EKVX NSCLC. Besides, the TGI was 25.7 µM with HOP-92 NSCLC; 35 µM in the assay with NCI/ADR-RES ovarian; 3.71 µM in the assay on SR leukemia; 34.3 µM in the assay on TK-10 renal; 28.8 µM in the assay with SF-539 CNS; 26 µM in the assay with HCC-2998 colon.

Turning to `CCCCCCCCCCCCCCCCCCOCC(C[N+]1(C)CCC(O)CC1)OCC` (stereo not given), the TGI in the assay with UO-31 renal is 27.5 µM; with SK-OV-3 ovarian, 8.22 µM; in the assay with NCI-H23 lung, 16 µM; in the assay on HOP-62 NSCLC it was 16.7 µM; with COLO 205 colon, 14.2 µM; in the assay on CAKI-1 renal, 21.1 µM. Further, the total growth inhibition concentration (TGI) in the assay on EKVX NSCLC is 46.3 µM; in the assay with HOP-92 NSCLC, 4.49 µM; in the assay on SF-268 CNS, 15 µM; in the assay on SR leukemia, 3.73 µM; in the assay with TK-10 renal, 20.5 µM; in the assay on SF-539 CNS, 32.8 µM. The compound also returned a concentration for total growth inhibition (TGI) in the assay with HCC-2998 colon of 31.7 µM.

A word on the TGI: it is the concentration giving total growth inhibition. A lower TGI goes with greater sensitivity of the cells.
